SMILES strings stand for the structures.

The results in this text go back to patent publication US7534915B2, “Non-symmetrical gelling agent” (Applied Nanosystems B.V., priority 2003, dated 2009).

The data set can be described thus: Gel test (vial inversion). It is filed as physicochemical. As to the method:
A weighed amount of solid was dissolved in 0.5 or 1 ml of the solvent in a closed 2.0 ml vial using a heating gun or a heating block and subsequently slowly cooled to room temperature by standing in the air. Gelation was determined by turning the vial upside down and gentle shaking. If no flow of the mass was observed, the mass was defined to be a gel. Alternatively, a weighed amount of solid was dissolved in 1 mL of solvent by the addition of acid or base. The subsequent addition of base or acid then gave gelation. Alternatively, a weighed amount of solid was dissolved in a small amount of solvent. The subsequent addition of a large amount of non-solvent then gave gelation. Alternatively, the solution of gelator/thickener was added to the non-solvent, resulting in gelation. Alternatively, a weighed amount of solid was mixed with 1 mL of solvent by sonication. After stopping the sonication, gelation occurred. Alternatively a weighed amount of solid was mixed with 1 mL of solvent by brief vortexing after which gelation occurred. Alternatively a weighed amount of solid was mixed with 1 mL of solvent after which gelation occurred.

Setting [1] is: PEG 400 (printed PEG for compound 20).

Take `O=C(O)[C@@H]1C[C@H](C(=O)O)C[C@H](C(=O)N[C@@H](Cc2ccccc2)C(=O)Nc2ccc3ccccc3c2)C1` [Compound 1, CHex(AmPhe-AmβNA)(COOH)2]: the Gel test result (3 mg/mL in H2O) is reported as “slightly crystalline gel”.

As to `O=C(NCCOCCO)[C@@H]1C[C@H](C(=O)NCCOCCO)C[C@H](C(=O)N[C@@H](Cc2ccccc2)C(=O)Nc2ccc3ccccc3c2)C1` [Compound 2, CHex(AmPhe-AmβNA)(AmEtOEtOH)2], the Gel test result (1 mg/mL in H2O) was “clear gel”.

Turning to `CSCC[C@H](NC(=O)[C@@H]1C[C@H](C(=O)O)C[C@H](C(=O)O)C1)C(=O)Nc1ccc2ccccc2c1` [Compound 3, CHex(AmMet-AmβNA)(COOH)2], the Gel test result (3 mg/mL in H2O) is reported as “slightly crystalline gel”.

In the case of `CSCC[C@H](NC(=O)[C@@H]1C[C@H](C(=O)NCCOCCO)C[C@H](C(=O)NCCOCCO)C1)C(=O)Nc1ccc2ccccc2c1` [Compound 4, CHex(AmMet-AmβNA)(AmEtOEtOH)2], the Gel test entry by setting is: (1 mg/mL in H2O) “clear gel”; (3 mg/mL in MeOH) “clear gel”.

For the compound `CSCC[C@H](NC(=O)[C@@H]1C[C@H](C(=O)NCCO)C[C@H](C(=O)NCCO)C1)C(=O)Nc1ccc2ccccc2c1` [Compound 5, CHex(AmMet-AmβNA)(AmEtOH)2], under “2 mg/mL in H2O”, the Gel test entry is on record as “clear gel”.

Take `CSCC[C@H](NC(=O)[C@@H]1C[C@H](C(=O)NCc2ccncc2)C[C@H](C(=O)NCc2ccncc2)C1)C(=O)Nc1ccc2ccccc2c1` [Compound 6, CHex(AmMet-AmβNA)(AmCH2Pyr)2]: the Gel test entry (1 mg/mL in H2O) is listed as “slightly turbid gel”.

`O=C(O)[C@@H]1C[C@H](C(=O)O)C[C@H](C(=O)N[C@@H](Cc2ccccc2)C(=O)NCc2ccccc2)C1` [Compound 7, CHex(AmPhe-AmBn)(COOH)2]: the Gel test entry (3 mg/mL in H2O) is “slightly turbid gel”.

As to `O=C(NCCOCCO)[C@@H]1C[C@H](C(=O)NCCOCCO)C[C@H](C(=O)N[C@@H](Cc2ccccc2)C(=O)NCc2ccccc2)C1` [Compound 8, CHex(AmPhe-AmBn)(AmEtOEtOtH)2], the Gel test result (1 mg/mL in H2O) is reported as “clear gel (thixotropic)”; the Gel test entry (EtOH) is reported as “gel”; the Gel test entry (H2O/PG mixtures) is on record as “gel”; the Gel test result (H2O/t-BuOH (TBA/H2O) mixtures) is on record as “gel”; the Gel test entry (MeCN) was “gel”; the Gel test result under setting [1] is listed as “gel”. For the same compound, the Gel test entry is, setting by setting: (olive oil) “weak gel”; (propylene glycol (PG)) “gel”; (t-BuOH) “gel”. In addition, the Gelation of emulsion result (hydrogel 2 mg/ml + olive oil 200 μL, vortexed five seconds) is “gelated emulsion”.

Consider `COc1ccc(NC(=O)[C@H](Cc2ccccc2)NC(=O)[C@@H]2C[C@H](C(=O)O)C[C@H](C(=O)O)C2)cc1` [Compound 9, CHex(AmPhe-AmPh-OMe)(COOH)2], for which, where the note is “3 mg/mL in H2O”, the Gel test entry is recorded as “clear gel”.

Consider `COc1ccc(NC(=O)[C@H](Cc2ccccc2)NC(=O)[C@@H]2C[C@H](C(=O)NCCOCCO)C[C@H](C(=O)NCCOCCO)C2)cc1` [Compound 10, CHex(AmPhe-AmPh-OMe)(AmEtOEtOH)2], for which the Gel test entry (3 mg/mL in H2O) is on record as “clear gel”.

As for `C[C@H](NC(=O)[C@@H]1C[C@H](C(=O)O)C[C@H](C(=O)O)C1)C(=O)Nc1ccc2ccccc2c1` [Compound 13, CHex(AmAlaAmβNA)(COOH)2], the Gel test entry (H2O, concentration not given) is recorded as “gel”.

As to `O=C(NCCOCCO)[C@@H]1C[C@H](C(=O)NCCOCCO)C[C@H](C(=O)N[C@@H](Cc2ccccc2)C(=O)Nc2ccc([N+](=O)[O-])cc2)C1` [Compound 14, CHex(AmPheAmPhNO2)(AmEtOEtOH)2], the Gel test entry (H2O, concentration not given) is “yellow, weak gel”. The “Stability upon heating in water” value (heating in water, yellow color (p-NA) observed) was “hydrolysis of the PheAmPhNO2 amide takes place”.

Regarding `O=C(N[C@@H](Cc1ccccc1)C(=O)NC1CCCCC1)[C@H]1C[C@@H](C(=O)OCc2ccccc2)C[C@@H](C(=O)OCc2ccccc2)C1` [Compound 16, CHex(OBn)2(AmPheAmCHex)], the Gel test entry is given as “gel” (EtOH), “gel” (MeCN), “gel” under setting [1] and “gel” (olive oil).

Turning to `O=C(NCCOCCO)[C@@H]1C[C@H](C(=O)NCCOCCO)C[C@H](C(=O)N[C@@H](Cc2ccccc2)C(=O)NC2CCCCC2)C1` [Compound 18, CHex(AmPheAmCHex)(AmEtOEtOH)2], the Gel test entry reads like this: (2 mg/mL in H2O) “clear gel”; (20 mg/mL in DMSO) “turbid gel”.

As to `CCCCCCCCCCNC(=O)[C@H](Cc1ccccc1)NC(=O)[C@@H]1C[C@H](C(=O)O)C[C@H](C(=O)O)C1` [Compound 19, CHex(AmPheAmDecyl)(COOH)2], the Gel test result is recorded as “clear gel” (H2O, concentration not given) and “gel” (toluene).

Regarding `CCCCCCCCCCNC(=O)[C@H](Cc1ccccc1)NC(=O)[C@@H]1C[C@H](C(=O)NCCOCCO)C[C@H](C(=O)NCCOCCO)C1` [Compound 20, CHex(AmPheAmDecyl)(AmEtOEtOH)2], the Gel test result is “gel” (EtOH); “gel” (H2O, concentration not given); “gel” under setting [1]; “gel” (toluene).

For the compound `CCCCCC(C)NC(=O)[C@H](Cc1ccccc1)NC(=O)[C@@H]1C[C@H](C(=O)O)C[C@H](C(=O)O)C1` (stereo partly shown) [Compound 21, CHex(AmPheAm2-Heptyl)(COOH)2], the Gel test result runs as follows: (H2O, concentration not given) “gel”; (toluene) “gel”.

Turning to `COC(=O)[C@H](Cc1ccccc1)NC(=O)[C@H](Cc1ccccc1)NC(=O)[C@@H]1C[C@H](C(=O)O)C[C@H](C(=O)O)C1` [Compound 22, CHex(AmPheAmPheOMe)(COOH)2], the Gel test result (toluene) is “gel”.

With `O=C(O)[C@@H]1C[C@H](C(=O)O)C[C@H](C(=O)N[C@@H](Cc2ccccc2)C(=O)N[C@@H](Cc2ccccc2)C(=O)O)C1` [Compound 23, CHex(AmPheAmPheOH)(COOH)2], the “Aqueous gel formation by acidification” value (compound 22 heated in 1N NaOH (aq), cooled to RT, 2N HCl (aq) added) is listed as “gel”.

With `O=C(NCCOCCO)[C@@H]1C[C@H](C(=O)NCCOCCO)C[C@H](C(=O)N[C@@H](Cc2ccc(O)cc2)C(=O)Nc2ccc3ccccc3c2)C1` [Compound 24, CHex(AmTyrAmβNA)(AmEtOEtOH)2], the Gel test entry is, setting by setting: (1 mg/mL in H2O) “clear gel”; (EtOH) “gel”; (MeCN) “gel”; (olive oil) “gelly precipitate”.

Consider `O=C(O)[C@@H]1C[C@H](C(=O)O)C[C@H](C(=O)N[C@@H](Cc2ccccc2)C(=O)NCCc2ccccc2)C1` [Compound 25, CHex(AmPheAmEtPh)(COOH)2], for which the Gel test entry runs as follows: (H2O, concentration not given) “gel”; (toluene) “gel”.

Consider `O=C(NCCOCCO)[C@@H]1C[C@H](C(=O)NCCOCCO)C[C@H](C(=O)N[C@@H](Cc2ccccc2)C(=O)NCCc2ccccc2)C1` [Compound 26, CHex(AmPheAmEtPh)(AmEtOEtOH)2], for which the Gel test entry by setting is: (H2O, concentration not given) “gel (thixotropic)”; (H2O/PG mixtures) “gel”; (H2O/t-BuOH (TBA/H2O) mixtures) “gel”; (propylene glycol (PG)) “gel”; (t-BuOH) “gel”.

With `O=C(CNC(=O)[C@H](Cc1ccccc1)NC(=O)[C@@H]1C[C@H](C(=O)O)C[C@H](C(=O)O)C1)Nc1ccc2ccccc2c1` [Compound 27, CHex(AmPheAmGlyAmβNA)(COOH)2], the Gel test entry (H2O, concentration not given) is given as “gel”.

Consider `COC(=O)[C@H](Cc1ccccc1)NC(=O)[C@@H]1C[C@H](C(=O)N[C@@H](Cc2ccccc2)C(=O)OC)C[C@H](C(=O)OCc2ccccc2)C1` [Compound 29, CHex(AmPhe-OMe)2(OBn)], for which the Gel test entry runs as follows: (EtOH) “gel”; (MeOH) “gel”; (olive oil) “gel”; (toluene) “gel”.

Consider `COC(=O)[C@H](Cc1ccccc1)NC(=O)[C@@H]1C[C@H](C(=O)O)C[C@H](C(=O)N[C@@H](Cc2ccccc2)C(=O)OC)C1` [Compound 30, CHex(AmPhe-OMe)2(COOH)], for which the Gel test entry is, setting by setting: (3 mg/mL in H2O) “clear gel”; (EtOH/H2O mixtures) “gel”; (PEG 400/H2O mixtures) “gel”; (olive oil) “gel”; (toluene) “gel”.

As for `CCCC[C@H](NC(=O)[C@@H]1C[C@H](C(=O)O)C[C@H](C(=O)N[C@@H](CCCC)C(=O)OC)C1)C(=O)OC` [Compound 31, CHex(AmNleOMe)2(COOH)], the Gel test entry runs as follows: (EtOH) “gel”; under setting [1], “gel”.

Take `CCCC[C@H](NC(=O)[C@@H]1C[C@H](C(=O)O)C[C@H](C(=O)N[C@@H](CCCC)C(=O)O)C1)C(=O)O` [Compound 32, CHex(AmNleOH)2(COOH)]: the Gel test entry (H2O, concentration not given) is recorded as “gel”.

Turning to `CNC(=O)[C@H](Cc1ccccc1)NC(=O)[C@@H]1C[C@H](C(=O)N[C@@H](Cc2ccccc2)C(=O)NC)C[C@H](C(=O)OCc2ccccc2)C1` [Compound 33, CHex(AmPheAmMe)2(COOBn)], under “DMSO”, the Gel test entry is on record as “turbid gel”.

Take `O=C(O)[C@H]1C[C@@H](C(=O)N[C@@H](Cc2ccccc2)C(=O)Nc2ccc3ccccc3c2)C[C@@H](C(=O)N[C@@H](Cc2ccccc2)C(=O)Nc2ccc3ccccc3c2)C1` [Compound 34, CHex(AmPheAmβNA)2(COOH)]: the Gel test entry is, setting by setting: (H2O, concentration not given) “gel”; (H2O/t-BuOH (TBA/H2O) mixtures) “gel”.

In the case of `O=C(N[C@@H](CO)C(=O)Nc1ccc2ccccc2c1)[C@@H]1C[C@H](C(=O)N[C@@H](CO)C(=O)Nc2ccc3ccccc3c2)C[C@H](C(=O)OCc2ccccc2)C1` [Compound 35, CHex(AmSerAmβNA)2(COOBn)], the Gel test result is, setting by setting: (DMSO/CH2Cl2 mixtures) “gel”; (DMSO/EtOH mixtures) “gel”; (DMSO/MeCN mixtures) “gel”; (DMSO/MeOH mixtures) “gel”; (DMSO/toluene mixtures) “gel”; (EtOH) “gel”. The Gel test entry (MeCN) is given as “gel”.
